Measured values reported in patent publication US20140120063A1, “NUTRITIONAL AND METABOLIC APPROACHES TO PREVENT EMERGENCE OF ENTERIC PATHOGENS” (The Board of Trustees of the Leland Stanford Junior …, priority 2012, published 2014).

Key:
C. difficile nanE = C. difficile nanE gene expression (qRT-PCR) in feces of mice given exogenous free sialic acid; type: in vivo; settings: sialic acid-fed Bt-ΔBT0455-associated mice, 1 day post-infection
Method: (§1) For sialic acid administration experiments, N-acetylneuraminic acid (Calbiochem or Santa Cruz Biotechnology) was administered in the water at a 1% concentration. Additionally, mice were orally gavaged 1 mg of sialic acid twice a day. The amount of sialic acid in the cecal contents were calculated to equal approximately 700 pmoles/mg of cecal contents, which mirrors the average concentration of free sialic acids we quantified post-antibiotic treatment (725 pmoles/mg).
qRT-PCR analysis was performed on RNA extracted from cecal or fecal contents by phenolchloroform extraction and bead beating. Superscript II (Invitrogen) was utilized to convert RNA to cDNA, and SYBR Green (ABgene) in a MX3000P thermocycler (Strategene) was utilized. Fold changes were normalized to in vitro growths in Minimal Medium containing 0.5% glucose (MM-G) for C. difficile and LB for S. typhimurium.

[1] = Amount of sialic acid in cecal contents after sialic acid administration; type: in vivo, mice; settings: 1% in water plus 1 mg oral gavage twice a day
Method: as §1
All steps were carried out at 4° C. to minimize enzymatic hydrolysis. Approximately 200 mg of flash-frozen cecal contents were weighed out and resuspended in 400 μl dH2O, Samples were vortexed for 30 minutes at max speed and centrifuged for 15 minutes at 14,000×g in the tabletop centrifuge.
The supernatant was stored, and the pellet resuspended in an additional 400 μl dH2O. The tubes were vortexed individually until the pellet was dispersed, and then all samples were vortexed for 30 minutes, centrifuged, and supernatants were pooled. This process was repeated once more for a total volume of approximately 1 ml. […] The resulting product was analyzed by reverse-phase HPLC using a C18 column (Dionex) at a flow rate of 0.9 ml/min, using a gradient of 5% to 11% acetonitrile in 7% methanol. […] The DMB-derivatized sialic acids were identified and quantified by comparing elution times and peak areas to known standards.

C. difficile = C. difficile density in feces of gnotobiotic mice given exogenous free sialic acid; type: in vivo
Method: (BioTek, Winooski, Vt.) every 30 minutes, at 37° C. anaerobically (6% H2, 20% CO2, 74% N2). Fecal densities (CFU) of C. difficile were quantified by duplicate sampling with 1 μl loops and subsequent dilution and spot plating on blood-BHI supplemented with erythromycin.
Germ-free Swiss-Webster mice were maintained in gnotobiotic isolators and fed an autoclaved standard diet (Purina LabDiet 5K67) or a polysaccharide-deficient diet (Sonnenburg, E. D., et al. Cell, 2010. 141(7): p. 1241-52), in accordance with A-PLAC, the Stanford IACUC. For all experiments involving C. difficile colonization of germ-free mice, the diet was switched to polysaccharide-deficient chow one day before inoculation with C. difficile.
as §1

[2] = system: S. typhimurium nanA mutant; assay: Growth of S. typhimurium nanA mutant in minimal medium in the presence of sialic acid; type: cell-based; settings: M9 minimal media, 0.25% sialic acid with glucose or glycerol
Method: FIG. 8. Requirement for S. typhimurium nan and fuc operons for in vitro growth on sialic acid and fucose. A) S. typhimurium SL1344 encodes the genes necessary to catabolize sialic acid and fucose. The nan and fuc operons are pictured in their genomic context. B) Growth of wild-type S. typhimurium and mutant S. typhimurium strains in M9 minimal medium containing 0.5% glucose (M9+glucose), 0.5% sialic acid (M9+sialic acid), or 0.5% fucose (M9+fucose). OD600 measurements were taken every 30 minutes. C, D) ΔNanA E. coli (Keio strain JW3194) and wild-type and ΔNanA S. typhimurium SL1344 strains were grown aerobically in M9 minimal media containing 0.5% total carbohydrate. Cells were grown in (C) 0.5% glucose or 0.25% glucose and 0.25% sialic acid, and (D) 0.5% glycerol (gro) or 0.25% glycerol and 0.25% sialic acid. Optical densities were measured at indicated times.
All strains of S. typhimurium were derived from wild-type strain SL1344, which is naturally streptomycin-resistant. […] Fecal densities (CFU) of S. typhimurium were quantified by duplicate sampling with 1 μl loops, and subsequent dilution and spot plating on plain LB agar for gnotobiotic experiments and LB agar with streptomycin for conventional experiments.

For `CC(=O)N[C@H]1[C@H]([C@H](O)[C@H](O)CO)OC(O)(C(=O)O)C[C@@H]1O` (some centres unmarked) [sialic acid, N-acetylneuraminic acid], which “C. difficile nanE expression, fold higher over PBS-treated controls” value (C. difficile nanE) is on record?
Its value is 58 fold.

What about the “amount of sialic acid in the cecal contents” value [1] of the same molecule?
The value was “approximately 700 pmoles/mg of cecal contents”.

What about the “C. difficile density in the lumen of the gut” value (C. difficile; GF mice infected with C. difficile, free sialic acid administration vs PBS, 1 day post-inoculation) of the same molecule?
Its value is “higher densities”.

What about the C. difficile density (C. difficile; feces, 1 day post-infection, Bt-ΔBT0455 monoassociated mice fed free sialic acid (1% in water plus 1 mg gavage twice a day), unsupplemented controls 6.8×10^7) of the same molecule?
The C. difficile density was 4.8×10^8 CFU/ml.

And the “toxicity of sialic acid to the nanA mutant” value [2]?
Its value is “did not pose a toxicity issue”.
